Experimental data published in US20230212296A1, “SYSTEMS AND METHODS FOR TREATING CANCER” (Arizona Board of Regents on Behalf of the University of …, priority 2020, published 2023).

What was measured:
HIF-1 = HIF-1 reporter (HRE-Luc) assay in Dox-PIM1 cells; type: cell-based; settings: Dox 24 h, then AZD1208 for 4 h, normoxia (FIG. 3D)
SW620 cells = assay: MTT cell viability, parental SW620 cells; type: cell-based; settings: parental SW620, increasing doses, 24 h (FIG. 6B)
Description: (§1) Response to drug: Twenty thousand cells were plated onto a 96-well plate and allowed to grow for 24 h prior to addition of the drug, and MTT assays were performed after 24 h incubation with the indicated drugs. For MTT assays, media was removed from the cells by aspiration and 50 μL serum-free DMEM and 50 μL MTT solution were added to each well, and plates were incubated for 4 h at 37° C. After incubation, 150 μL of DMSO was added to each well for 15 minutes and absorbance was read at 540 nm.

PIM1 [1] = target: T1, PIM1 (Homo sapiens, UniProt P11309); type: biochemical; settings: immunoprecipitated HA-HIF-1α, recombinant PIM1 (FIG. 4D)
T1 sequence (P11309 whole entry): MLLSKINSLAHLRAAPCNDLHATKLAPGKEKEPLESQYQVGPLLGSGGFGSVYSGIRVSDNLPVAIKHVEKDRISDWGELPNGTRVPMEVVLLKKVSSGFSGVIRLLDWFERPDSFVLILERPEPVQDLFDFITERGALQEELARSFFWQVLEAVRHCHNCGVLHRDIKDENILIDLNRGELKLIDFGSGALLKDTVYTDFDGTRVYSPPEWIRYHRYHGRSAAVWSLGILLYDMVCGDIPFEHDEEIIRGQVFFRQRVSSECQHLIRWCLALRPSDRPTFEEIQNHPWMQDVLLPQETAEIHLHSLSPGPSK
Description: In vivo: HA-HIF-1α or its mutant (T455A) were immunoprecipitated with anti-HA antibodies. Immune complexes were washed three times in lysis buffer, then washed twice in 1× kinase buffer and incubated with 0.1 μg of recombinant active PIM1 and 100 μmol/L of ATP for 30 min at 25° C. Reactions were stopped by washing twice in a cold kinase buffer and boiling in 2×SDS loading buffer. The sample was separated on a SDS-polyacrylamide gel and subjected to Western blot analysis with anti-phospho HIF-1α (T455) antibody.

HIF-1 target genes = assay: Hypoxia-inducible gene expression (RT2 profiler array, qRT-PCR) in PC3 Dox-PIM1 cells; type: cell-based; settings: eleven genes; Dox 24 h, ± AZD1208 for 8 h, normoxia (FIG. 3F)
Description: Hypoxia-responsive gene expression was measured and quantified using RT^2 hypoxia-signaling PCR profiler arrays using the manufacturer's software (Qiagen). All other qRT-PCR reactions were performed using qPCRBIO SyGreen Blue Mix (PCR Biosystems), according to the manufacturer's protocol. Validated primer sets (QuantiTech primer assays; Qiagen) for each of the following genes were purchased to measure gene expression: VEGF-A, angiopoietin like 4 (ANGPTL4), and hexokinase 2 (HK2). HIF1α, PIM1 and Actin primers were purchased from IDT. Actin was used to normalize.

B24 and C34 cell lines = assay: MTT cell viability, HIF-1α T455D mutant SW620 lines B24 and C34; type: cell-based; settings: B24 and C34, increasing doses, 24 h (FIG. 6B)
Description: as §1

PIM1 [2] = target: T1, PIM1; type: biochemical; design: Recombinant full-length GST-PIM1 was incubated with recombinant GST-HIF-1α; GST; settings: in the presence of a PIM inhibitor (AZD1208 100 nM per method) (FIG. 4A)
Description: In vitro: Recombinant full-length GST-PIM1 was incubated with recombinant GST-HIF-1α, GST (negative control), or dephosphorylated myelin basic protein (MBP) in the presence or absence of AZD1208 (100 nM) and ^32P-labeled ATP in kinase assay buffer (20 mM MOPS [pH 7.0] containing 100 mM NaCl, 10 mmol/L MgCl2, and 2 mmol/L dithiothreitol). Reactions were incubated at 37° C. for 60 min prior to the addition of 5× Laemmli sample buffer. Samples were separated by SDS-PAGE and gels were stained with Coomassie prior to autoradiography or preparation for mass spectrometry.

HIF-1α = assay: Immunoblotting of HIF-1α and phospho-T455 in Dox-PIM1 PC3 cells; type: cell-based; settings: Dox-PIM1 PC3, dox 24 h, AZD1208 3 μM for 6 h (FIG. 3C)
B24 and C34 tumors = assay: B24 / C34 (HIF-1α T455D) xenografts in SCID mice; type: in vivo
Description: (§2) FIG. 6: Five million parental, B24, or C34 SW620 cells in PBS were injected subcutaneously into the rear flanks of mice. Once the tumors reached a volume of approximately 100 mm^3, the mice were randomized for daily treatment with vehicle or AZD1208 (30 mg/kg/day, p.o.) for up to 2 weeks or until tumor burden reached a maximum volume of 2 cm^3. Tumors were measured every 2-3 days via caliper. Upon sacrifice, tumors were harvested for IHC staining with PIM1, HIF-1α, and CC3, and mRNA was collected for analysis.
(§3) For both, the following formula was used to calculate tumor volume by caliper measurements:
(§4) V=(tumor width)^2×tumor length/2.
(§5) These lines were validated by Sanger sequencing.

SW620 tumors = assay: SW620 xenograft in SCID mice; type: in vivo
Description: as §2, §3, §4, §5

Row | Compound | PIM1-induced increase of HIF-1 activity (HRE-Luc normalized to Renilla-Luc) (HIF-1) | cell viability (MTT) (SW620 cells) | phosphorylation of wild-type HIF-1α at Thr455 by PIM1 (PIM1 [1]) | transcript levels of hypoxia-inducible genes upregulated at least 3-fold by PIM1 (HIF-1 target genes) | cell viability (MTT), sensitivity versus parental SW620 (B24 and C34 cell lines) | phosphorylation of HIF-1α by PIM1 (autoradiography) (PIM1 [2]) | ability of PIM1 to increase HIF-1α protein levels (HIF-1α) | expression of HIF-1 target genes in tumor tissue (RT-PCR) (B24 and C34 tumors; B24 and C34 tumors, AZD1208 30 mg/kg (FIG. 6K)) | HIF-1α levels in tumors (IHC) (B24 and C34 tumors; B24 or C34 tumors, AZD1208 30 mg/kg (FIG. 6I)) | apoptosis (cleaved caspase-3 staining) (B24 and C34 tumors; B24 or C34 tumors, AZD1208 30 mg/kg (FIG. 6J)) | tumor growth (B24 and C34 tumors; B24 or C34 xenografts, AZD1208 30 mg/kg/day p.o. (FIG. 6G)) | tumor vasculature (H&E staining) (B24 and C34 tumors; C34 and B24 tumors, AZD1208 30 mg/kg (FIG. 6H)) | HIF-1α levels in tumors (IHC) (SW620 tumors; SW620 tumors, AZD1208 30 mg/kg (FIG. 6I)) | apoptosis (cleaved caspase-3 staining) (SW620 tumors; SW620 tumors, AZD1208 30 mg/kg (FIG. 6J)) | expression of pro-angiogenic genes VEGF-A and ANGPT4 in tumor tissue (RT-PCR) (SW620 tumors; SW620 tumors, AZD1208 30 mg/kg (FIG. 6K)) | tumor volume (SW620 tumors; SW620 tumors, AZD1208 30 mg/kg/day p.o. (FIG. 6G)) | tumor vasculature (H&E staining) (SW620 tumors; SW620 xenografts, AZD1208 30 mg/kg (FIG. 6H)) | in vitro kinase assay (32P-ATP autoradiography; mass spectrometry of phosphorylation sites) (recombinant GST-HIF-1α) | kinase assay on immunoprecipitated HA-HIF-1α, western blot with phospho-T455 antibody (HA-HIF-1α (wild-type))
1 | N[C@@H]1CCCN(c2c(/C=C3\SC(=O)NC3=O)cccc2-c2ccccc2)C1 [AZD1208] | reversed | significant and dose-dependent reduction in viability | blocked | significantly reduced | less sensitive | phosphorylation was lost | blocked the ability of PIM1 to increase HIF-1α protein levels | no effect | refractory to PIM inhibition | no significant apoptosis was observed | unable to slow the growth | regular vasculature was observed | significantly reduced | increased | reduced | significantly reduced | disrupted tumor vasculature |  | 
2 | recombinant full-length GST-PIM1 |  |  |  |  |  |  |  |  |  |  |  |  |  |  |  |  |  | Autoradiography revealed that PIM1 is able to phosphorylate HIF-1α, and phosphorylation was lost in the presence of a PIM inhibitor | Wild-type HIF-1α displayed robust phosphorylation at Thr455 by PIM1, which was blocked by AZD1208
